“And” between values parts separate entries of the source, which are not always exact repeats. Equal entries are not always repeated. ± gives the expanded uncertainty stated by the source.
Settings: Liquid, transient hot wire

O=C(C(F)(F)C(F)(F)F)C(F)(C(F)(F)F)C(F)(F)F [dodecafluoro-2-methylpentan-3-one]
thermal conductivity (212.68 K, 43023 kPa): 0.08262 ± 0.0017 W/m/K
thermal conductivity (212.69 K, 34811 kPa): 0.08103 ± 0.0017 W/m/K
thermal conductivity (212.7 K, 26854 kPa): 0.0791 ± 0.0016 W/m/K
thermal conductivity (212.7 K, 34796 kPa): 0.08096 ± 0.0017 W/m/K
thermal conductivity (212.71 K, 19432 kPa): 0.07795 ± 0.0016 W/m/K
thermal conductivity (212.71 K, 26846 kPa): 0.07958 ± 0.0016 W/m/K
thermal conductivity (212.72 K, 19443 kPa): 0.07837 ± 0.0016 W/m/K
thermal conductivity (212.73 K, 12670 kPa): 0.07626 ± 0.0016 W/m/K
thermal conductivity (212.73 K, 12671 kPa): 0.0764 ± 0.0016 W/m/K
thermal conductivity (212.75 K, 5793 kPa): 0.07492 ± 0.0015 W/m/K
thermal conductivity (212.75 K, 5801 kPa): 0.0748 ± 0.0015 W/m/K
thermal conductivity (212.77 K, 172 kPa): 0.07396 ± 0.0015 W/m/K
thermal conductivity (212.79 K, 181 kPa): 0.07378 ± 0.0015 W/m/K
thermal conductivity (213.1 K, 67106 kPa): 0.08599 ± 0.0018 W/m/K and 0.08628 ± 0.0018 W/m/K
thermal conductivity (213.11 K, 60772 kPa): 0.08539 ± 0.0018 W/m/K
thermal conductivity (213.11 K, 60780 kPa): 0.08539 ± 0.0018 W/m/K
thermal conductivity (213.13 K, 52081 kPa): 0.08389 ± 0.0017 W/m/K
thermal conductivity (213.13 K, 52089 kPa): 0.08383 ± 0.0017 W/m/K
thermal conductivity (213.19 K, 43027 kPa): 0.08245 ± 0.0017 W/m/K
thermal conductivity (213.19 K, 43036 kPa): 0.08268 ± 0.0017 W/m/K
thermal conductivity (213.21 K, 34805 kPa): 0.08073 ± 0.0017 W/m/K
thermal conductivity (213.21 K, 34810 kPa): 0.08114 ± 0.0017 W/m/K
thermal conductivity (213.23 K, 26845 kPa): 0.07947 ± 0.0016 W/m/K
thermal conductivity (213.24 K, 26846 kPa): 0.07959 ± 0.0016 W/m/K
thermal conductivity (213.25 K, 19430 kPa): 0.07775 ± 0.0016 W/m/K
thermal conductivity (213.25 K, 19435 kPa): 0.0774 ± 0.0016 W/m/K
thermal conductivity (213.27 K, 12661 kPa): 0.07617 ± 0.0016 W/m/K
thermal conductivity (213.28 K, 12679 kPa): 0.0761 ± 0.0016 W/m/K
thermal conductivity (213.31 K, 5806 kPa): 0.07469 ± 0.0015 W/m/K
thermal conductivity (213.31 K, 5813 kPa): 0.07468 ± 0.0015 W/m/K
thermal conductivity (213.33 K, 173 kPa): 0.07373 ± 0.0015 W/m/K
thermal conductivity (213.33 K, 180 kPa): 0.07364 ± 0.0015 W/m/K
thermal conductivity (213.62 K, 67087 kPa): 0.08645 ± 0.0018 W/m/K
thermal conductivity (213.63 K, 67097 kPa): 0.08628 ± 0.0018 W/m/K
thermal conductivity (213.64 K, 60766 kPa): 0.08543 ± 0.0018 W/m/K
thermal conductivity (213.65 K, 60770 kPa): 0.08553 ± 0.0018 W/m/K
thermal conductivity (213.67 K, 52073 kPa): 0.08388 ± 0.0017 W/m/K
thermal conductivity (213.67 K, 52074 kPa): 0.08401 ± 0.0017 W/m/K
thermal conductivity (213.74 K, 43029 kPa): 0.08234 ± 0.0017 W/m/K
thermal conductivity (213.75 K, 43019 kPa): 0.08232 ± 0.0017 W/m/K
thermal conductivity (241.26 K, 25699 kPa): 0.0759 ± 0.0016 W/m/K
thermal conductivity (241.27 K, 25696 kPa): 0.07599 ± 0.0016 W/m/K
thermal conductivity (241.32 K, 12027 kPa): 0.07227 ± 0.0015 W/m/K and 0.07234 ± 0.0015 W/m/K
thermal conductivity (241.33 K, 18761 kPa): 0.07423 ± 0.0015 W/m/K
thermal conductivity (241.33 K, 18763 kPa): 0.0739 ± 0.0015 W/m/K
thermal conductivity (241.38 K, 209 kPa): 0.06892 ± 0.0014 W/m/K and 0.06884 ± 0.0014 W/m/K
thermal conductivity (241.39 K, 5841 kPa): 0.07049 ± 0.0014 W/m/K
thermal conductivity (241.39 K, 5844 kPa): 0.07044 ± 0.0014 W/m/K
thermal conductivity (241.62 K, 33678 kPa): 0.07765 ± 0.0016 W/m/K
thermal conductivity (241.63 K, 33700 kPa): 0.07761 ± 0.0016 W/m/K
thermal conductivity (241.64 K, 41986 kPa): 0.0795 ± 0.0016 W/m/K
thermal conductivity (241.65 K, 41994 kPa): 0.07941 ± 0.0016 W/m/K
thermal conductivity (241.65 K, 50824 kPa): 0.0813 ± 0.0017 W/m/K
thermal conductivity (241.65 K, 50825 kPa): 0.08126 ± 0.0017 W/m/K
thermal conductivity (241.66 K, 60321 kPa): 0.08312 ± 0.0017 W/m/K
thermal conductivity (241.66 K, 60336 kPa): 0.08322 ± 0.0017 W/m/K
thermal conductivity (241.67 K, 25701 kPa): 0.07567 ± 0.0016 W/m/K
thermal conductivity (241.68 K, 25692 kPa): 0.0752 ± 0.0015 W/m/K
thermal conductivity (241.68 K, 68451 kPa): 0.08416 ± 0.0017 W/m/K
thermal conductivity (241.68 K, 68475 kPa): 0.0844 ± 0.0017 W/m/K
thermal conductivity (241.74 K, 18761 kPa): 0.07395 ± 0.0015 W/m/K
thermal conductivity (241.75 K, 12028 kPa): 0.07237 ± 0.0015 W/m/K
thermal conductivity (241.75 K, 18761 kPa): 0.07396 ± 0.0015 W/m/K
thermal conductivity (241.76 K, 12022 kPa): 0.07209 ± 0.0015 W/m/K
thermal conductivity (241.83 K, 210 kPa): 0.06806 ± 0.0014 W/m/K
thermal conductivity (241.83 K, 5847 kPa): 0.06983 ± 0.0014 W/m/K
thermal conductivity (241.84 K, 211 kPa): 0.06786 ± 0.0014 W/m/K
thermal conductivity (241.84 K, 5846 kPa): 0.07 ± 0.0014 W/m/K
thermal conductivity (242.08 K, 33680 kPa): 0.0771 ± 0.0016 W/m/K
thermal conductivity (242.08 K, 60313 kPa): 0.08307 ± 0.0017 W/m/K
thermal conductivity (242.09 K, 33695 kPa): 0.07709 ± 0.0016 W/m/K
thermal conductivity (242.09 K, 41985 kPa): 0.07857 ± 0.0016 W/m/K
thermal conductivity (242.09 K, 50804 kPa): 0.081 ± 0.0017 W/m/K
thermal conductivity (242.09 K, 50825 kPa): 0.08098 ± 0.0017 W/m/K
thermal conductivity (242.1 K, 41988 kPa): 0.07839 ± 0.0016 W/m/K
thermal conductivity (242.1 K, 60314 kPa): 0.08294 ± 0.0017 W/m/K
thermal conductivity (242.1 K, 68448 kPa): 0.08374 ± 0.0017 W/m/K
thermal conductivity (242.11 K, 68433 kPa): 0.08377 ± 0.0017 W/m/K
thermal conductivity (242.14 K, 25700 kPa): 0.07474 ± 0.0015 W/m/K
thermal conductivity (242.14 K, 25703 kPa): 0.07481 ± 0.0015 W/m/K
thermal conductivity (242.23 K, 18760 kPa): 0.07343 ± 0.0015 W/m/K
thermal conductivity (242.23 K, 18761 kPa): 0.07341 ± 0.0015 W/m/K
thermal conductivity (242.24 K, 12027 kPa): 0.07149 ± 0.0015 W/m/K
thermal conductivity (242.24 K, 12030 kPa): 0.07138 ± 0.0015 W/m/K

— the NIST ThermoML archive (doi:10.1021/acs.jced.8b00132)
